Measured values from patent US9050285B2, “Recombinant bacterium capable of eliciting an immune response against Streptococcus pneumoniae” (The United States of America National Institutes of Health …, priority 2008, dated 2015).

Assays:
Format in all cases: cell-based
[1] = system: χ9639(pYA4088); test: Minimum inhibitory concentrations of antibiotics for RASV-Sp strain χ9639(pYA4088); conditions: Salmonella Typhi strain χ9639(pYA4088); for MIC: Salmonella enterica, read-out: Minimum inhibitory concentration
From the text: (§1) Master seed and working seed banks of each vaccine organism in separate vials have been prepared for frozen storage in vegetable-based cryopreservative. […] Antibiotic sensitivity testing has confirmed that these strains are sensitive to ciprofloxacin, ampicillin, ceftriaxone, trimethoprim/sulfamethoxazole (Table 13). Ampicillin, ciprofloxacin, ceftriaxone and trimethoprim/sulfamethoxazole are typically tested for minimum inhibitory concentrations (MICs) for Salmonella.

[2] = system: χ9640(pYA4088); test: Minimum inhibitory concentrations of antibiotics for RASV-Sp strain χ9640(pYA4088); conditions: Salmonella Typhi strain χ9640(pYA4088); for MIC: Salmonella enterica, read-out: Minimum inhibitory concentration
From the text: as §1

[3] = system: χ9633(pYA4088); test: Minimum inhibitory concentrations of antibiotics for RASV-Sp strain χ9633(pYA4088); conditions: Salmonella Typhi strain χ9633(pYA4088)
From the text: as §1

Molecule	MIC [1] [µg/mL]	MIC [2] [µg/mL]	Minimum inhibitory concentration [3] [µg/mL]	Minimum inhibitory concentration [1] [µg/mL]	Minimum inhibitory concentration [2] [µg/mL]
O=C(O)c1cn(C2CC2)c2cc(N3CCNCC3)c(F)cc2c1=O [ciprofloxacin]	< 0.25	< 0.25	–	–	–
trimethroprim-sulfamethoxazole	–	–	<20	<20	<20
CO/N=C(\C(=O)N[C@@H]1C(=O)N2C(C(=O)O)=C(CSc3nc(=O)c(=O)[nH]n3C)CS[C@H]12)c1csc(N)n1 [ceftriaxone]	< 1	< 1	–	–	–
CC1(C)S[C@@H]2[C@H](NC(=O)[C@H](N)c3ccccc3)C(=O)N2[C@H]1C(=O)O [ampicillin]	< 2	< 2	–	–	–
